# Several values for one entry are separate records, joined by “and”; a condition that tells them apart may be missing. Equal entries are not always repeated. Activity calls are given as the source filed them.
# Columns and labels:
# cells [1] = assay type: functional, cell-based
# Major prion protein = Major prion protein (Homo sapiens, UniProt P04156); assay type: functional, cell-based
# [2] = Shn3 3'UTR reporter inhibitors, dose response, cell-based, Clone20 osteoblasts, firefly luciferase, cherry-picked (AID 624132); assay type: functional;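 further: firefly luciferase luminescence from reporter carrying the Shn3 3'UTR in osteoblasts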
# cells [3] = test: cells
# [4] = control 3'UTR Renilla luciferase suppression, dose response, counter-screen for Shn3 inhibitor project, cell-based, Clone20-Shn3RL, cherry-picked (AID 624133); assay type: functional
# [5] = cytotoxicity in HEK-293T cells, dose response, cytotoxicity control for BCR NF-kB inhibitor project, luminescence, B-cell screen hits (AID 489021); assay type: functional, cell-based;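 further: HEK-293T cells carrying an NF-kB luciferase reporter; cells exposed to compound for about 14 hours before viability readout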
# INS1 = test: beta cell apoptosis inhibitors, cytokine rescue, dose response, luminescence, retest (AID 449756); assay type: functional, cell-based;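 further: cell death triggered by IL-1 beta plus TNF-alpha plus IFN-gamma mixture; protective hits raise ATP signal compared with cytokine alone wells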
# [6] = target: Nuclear receptor subfamily 0 group B member 1 (Homo sapiens, UniProt P51843); assay type: functional, cell-based;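 further: HEK293T cells transfected with SF-1 and DAX-1 plus StAR promoter luciferase reporter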
# Paired box protein Pax-8 = Paired box protein Pax-8 (Homo sapiens, UniProt Q06710); test: inhibitors of PAX8-driven TPO luciferase reporter, dose response, RMG-I cells, cherry-pick (AID 687027); assay type: functional, cell-based;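 further: luciferase reporter driven by Pax8 target thyroperoxidase promoter measured by SteadyGlo luminescence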
# Chain of Paired box protein Pax-8 (Q06710 whole entry): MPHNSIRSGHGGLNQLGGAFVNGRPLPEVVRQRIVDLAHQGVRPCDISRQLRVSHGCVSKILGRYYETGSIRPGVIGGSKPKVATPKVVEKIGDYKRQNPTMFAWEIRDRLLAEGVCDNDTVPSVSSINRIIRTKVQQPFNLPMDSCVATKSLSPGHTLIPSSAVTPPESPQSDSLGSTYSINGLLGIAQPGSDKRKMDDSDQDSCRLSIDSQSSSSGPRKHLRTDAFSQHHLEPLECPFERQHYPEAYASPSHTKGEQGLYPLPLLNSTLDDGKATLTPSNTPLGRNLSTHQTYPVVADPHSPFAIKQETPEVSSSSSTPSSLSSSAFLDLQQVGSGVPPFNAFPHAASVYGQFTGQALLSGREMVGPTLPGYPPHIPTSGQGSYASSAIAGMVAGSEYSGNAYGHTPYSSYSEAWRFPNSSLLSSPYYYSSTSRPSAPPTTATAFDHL
# [7] = Luminescence Cell-Based Dose Retest to Confirm Inhibitors of Cancer Stem Cells. [Related pubchem assays (depositor defined):AID2717, AID2721]; assay type: functional; settings: Homo sapiens
# [8] = ZM109 Env clade C HIV-1 fusion inhibitors, dose response, HeLa effector, CEM target cells, luciferase, cherry-pick (AID 652058); assay type: functional, cell-based
# [9] = off-target signal loss in HeLa-CEM21 co-culture – HeLa F-luc CTL cells, cherry-picked, counter-screen for HIV-1 Env fusion inhibitor project, dose response (AID 652040); assay type: functional, cell-based;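 further: potency for signal decrease marking cytotoxic or nonspecific inhibition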
# [10] = inhibitors of clade B AD8 Env fusion, dose response, cell-based, cherry-pick (AID 652062); assay type: functional;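 further: luciferase signal from cell-cell fusion driven by HIV-1 clade B AD8 Env; potency is for inhibitors of fusion seen as a drop in luminescence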
# [11] = inhibitors of HIV Env-driven cell fusion, dose response, cherry-pick (AID 652057); assay type: functional, cell-based
# [12] = CEM21 lymphoblast cell cytotoxicity, dose response, cytotoxicity control for viral fusion inhibitor project, CellTiter-Glo luminescence, cherry-picked (AID 652042); assay type: functional, cell-based;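 further: potency for signal decrease meaning cytotoxicity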
# [13] = target: Fructose-bisphosphate aldolase (Mycobacterium tuberculosis, UniProt P9WQA3); test: Fluorescence-based biochemical high throughput dose response assay for inhibitors of the fructose-bisphosphate aldolase (FBA) of M. tuberculosis.; assay type: functional
# Chain of Fructose-bisphosphate aldolase (P9WQA3 whole entry): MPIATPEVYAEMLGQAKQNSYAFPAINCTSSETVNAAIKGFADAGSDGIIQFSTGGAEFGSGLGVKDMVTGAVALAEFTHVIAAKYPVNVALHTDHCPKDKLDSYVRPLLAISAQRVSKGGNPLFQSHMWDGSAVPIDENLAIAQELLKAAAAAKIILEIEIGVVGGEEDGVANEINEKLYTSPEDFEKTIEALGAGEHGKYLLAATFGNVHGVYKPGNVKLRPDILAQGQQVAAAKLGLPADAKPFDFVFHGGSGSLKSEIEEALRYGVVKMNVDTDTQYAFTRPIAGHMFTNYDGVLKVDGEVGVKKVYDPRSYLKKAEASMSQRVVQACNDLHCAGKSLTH
# [14] = human group III sPLA2 inhibitors, dose response, biochemical, QFRET, IC50 (AID 743457);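 further: green fluorescence rise as the enzyme cleaves BODIPY PC-A2 in liposomes; potency for inhibition of the enzyme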
# A549 = test: A549 cell toxicity, dose response, cytotoxicity control, plate reader, cherry-pick samples (AID 687028); assay type: functional, cell-based; settings: Homo sapiens
# Vero = test: Vero cell toxicity, dose response, cytotoxicity control, plate reader, cherry-pick samples (AID 687020); assay type: functional, cell-based; settings: Chlorocebus sabaeus
# BHK-21 = test: BHK-21 cell toxicity, dose response, cytotoxicity control, plate reader, cherry-pick samples (AID 687030); assay type: functional, cell-based; settings: Mesocricetus auratus
# HeLa = test: HeLa cell cytotoxicity, dose response, cytotoxicity control, ATP luminescence, cherry-pick samples (AID 687004); assay type: functional, cell-based; settings: Homo sapiens
# HepG2 = test: HepG2 Cytotoxicity Assay Measured in Cell-Based System Using Plate Reader - 7071-02_Inhibitor_Dose_CherryPick_Activity.; assay type: functional; settings: Homo sapiens
# [15] = MC4R antagonists, dose response, counter-screen for LGR2 antagonist project, cell-based, plate reader, cherry pick (AID 743444); assay type: functional;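 further: transfected HEK 293 cells stimulated with alpha-MSH peptide; potency of inhibitors of the alpha-MSH evoked signal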
# [16] = LGR2 antagonists, dose response, cell-based, HEK293, CRE-luciferase reporter, cherry pick, set 2 (AID 743343); assay type: functional;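 further: transfected cells were stimulated with diluted bursicon conditioned medium after compound addition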
# [17] = A549 cell cytotoxicity, dose response, cytotoxicity control, plate reader, cherry-pick, antagonist series (AID 743412); assay type: functional, cell-based
# [18] = HEK293T cytotoxicity, dose response, cytotoxicity control for miR-122 modulator project, cell-based, activator set, cherry-pick (AID 720690); assay type: functional;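 further: HEK293T human cells scored for general mammalian cytotoxicity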
# [19] = inhibitors of CMV-promoter luciferase reporter, dose response, counter-screen for Pax8 inhibitor project, cell-based, HEK293, luminescence, dry powder (AID 743020); assay type: functional
# [20] = HEK293T cytotoxicity, dose response, cytotoxicity control for miR-122 modulator project, cell-based, inhibitor set, cherry-pick, set 2 (AID 720697); assay type: functional
# Protein RecA = target: T1, Protein RecA (Mycobacterium tuberculosis, UniProt P9WHJ3); test: Fluorescence Cell-Free Homogeneous Dose Retest to Identify Inhibitors of RecA-Intein Splicing Activity. [Related pubchem assays (depositor defined):AID2097, AID2223, AID489010, AID492950]; assay type: functional
# T1 sequence (P9WHJ3 whole entry): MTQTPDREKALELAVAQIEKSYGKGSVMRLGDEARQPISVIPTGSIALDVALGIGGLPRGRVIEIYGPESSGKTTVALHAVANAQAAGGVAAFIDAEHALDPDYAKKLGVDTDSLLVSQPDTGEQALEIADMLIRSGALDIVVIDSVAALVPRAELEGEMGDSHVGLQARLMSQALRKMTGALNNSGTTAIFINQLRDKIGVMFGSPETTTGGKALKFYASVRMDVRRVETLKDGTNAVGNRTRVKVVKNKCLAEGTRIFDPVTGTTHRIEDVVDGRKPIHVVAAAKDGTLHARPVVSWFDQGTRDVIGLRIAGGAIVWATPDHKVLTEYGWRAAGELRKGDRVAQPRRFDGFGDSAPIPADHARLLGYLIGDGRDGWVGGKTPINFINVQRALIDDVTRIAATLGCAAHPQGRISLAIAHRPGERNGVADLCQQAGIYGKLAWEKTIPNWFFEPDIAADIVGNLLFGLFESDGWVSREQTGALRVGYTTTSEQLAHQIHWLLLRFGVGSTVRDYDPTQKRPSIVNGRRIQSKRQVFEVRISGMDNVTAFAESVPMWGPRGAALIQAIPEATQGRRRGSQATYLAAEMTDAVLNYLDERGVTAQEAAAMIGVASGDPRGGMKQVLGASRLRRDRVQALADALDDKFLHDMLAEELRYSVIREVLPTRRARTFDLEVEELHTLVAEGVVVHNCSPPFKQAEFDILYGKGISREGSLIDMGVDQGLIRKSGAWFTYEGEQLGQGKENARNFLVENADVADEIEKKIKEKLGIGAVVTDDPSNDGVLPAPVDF
# [21] = target: Induced myeloid leukemia cell differentiation protein Mcl-1 (Homo sapiens, UniProt Q07820); assay type: functional
# Chain of Induced myeloid leukemia cell differentiation protein Mcl-1 (Q07820 whole entry): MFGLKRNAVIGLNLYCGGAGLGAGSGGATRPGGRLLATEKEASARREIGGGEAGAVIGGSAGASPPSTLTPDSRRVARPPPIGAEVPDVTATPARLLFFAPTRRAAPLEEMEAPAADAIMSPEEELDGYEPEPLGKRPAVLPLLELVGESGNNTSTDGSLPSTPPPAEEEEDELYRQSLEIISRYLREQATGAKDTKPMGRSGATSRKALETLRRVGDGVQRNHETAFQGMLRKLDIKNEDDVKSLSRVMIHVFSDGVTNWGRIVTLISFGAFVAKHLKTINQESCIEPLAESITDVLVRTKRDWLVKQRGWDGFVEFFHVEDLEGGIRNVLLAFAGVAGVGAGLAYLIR
# [22] = target: Histone-lysine N-methyltransferase NSD2 (Homo sapiens, UniProt O96028); assay type: biochemical
# Chain of Histone-lysine N-methyltransferase NSD2 (O96028 whole entry, the tested form may be a part): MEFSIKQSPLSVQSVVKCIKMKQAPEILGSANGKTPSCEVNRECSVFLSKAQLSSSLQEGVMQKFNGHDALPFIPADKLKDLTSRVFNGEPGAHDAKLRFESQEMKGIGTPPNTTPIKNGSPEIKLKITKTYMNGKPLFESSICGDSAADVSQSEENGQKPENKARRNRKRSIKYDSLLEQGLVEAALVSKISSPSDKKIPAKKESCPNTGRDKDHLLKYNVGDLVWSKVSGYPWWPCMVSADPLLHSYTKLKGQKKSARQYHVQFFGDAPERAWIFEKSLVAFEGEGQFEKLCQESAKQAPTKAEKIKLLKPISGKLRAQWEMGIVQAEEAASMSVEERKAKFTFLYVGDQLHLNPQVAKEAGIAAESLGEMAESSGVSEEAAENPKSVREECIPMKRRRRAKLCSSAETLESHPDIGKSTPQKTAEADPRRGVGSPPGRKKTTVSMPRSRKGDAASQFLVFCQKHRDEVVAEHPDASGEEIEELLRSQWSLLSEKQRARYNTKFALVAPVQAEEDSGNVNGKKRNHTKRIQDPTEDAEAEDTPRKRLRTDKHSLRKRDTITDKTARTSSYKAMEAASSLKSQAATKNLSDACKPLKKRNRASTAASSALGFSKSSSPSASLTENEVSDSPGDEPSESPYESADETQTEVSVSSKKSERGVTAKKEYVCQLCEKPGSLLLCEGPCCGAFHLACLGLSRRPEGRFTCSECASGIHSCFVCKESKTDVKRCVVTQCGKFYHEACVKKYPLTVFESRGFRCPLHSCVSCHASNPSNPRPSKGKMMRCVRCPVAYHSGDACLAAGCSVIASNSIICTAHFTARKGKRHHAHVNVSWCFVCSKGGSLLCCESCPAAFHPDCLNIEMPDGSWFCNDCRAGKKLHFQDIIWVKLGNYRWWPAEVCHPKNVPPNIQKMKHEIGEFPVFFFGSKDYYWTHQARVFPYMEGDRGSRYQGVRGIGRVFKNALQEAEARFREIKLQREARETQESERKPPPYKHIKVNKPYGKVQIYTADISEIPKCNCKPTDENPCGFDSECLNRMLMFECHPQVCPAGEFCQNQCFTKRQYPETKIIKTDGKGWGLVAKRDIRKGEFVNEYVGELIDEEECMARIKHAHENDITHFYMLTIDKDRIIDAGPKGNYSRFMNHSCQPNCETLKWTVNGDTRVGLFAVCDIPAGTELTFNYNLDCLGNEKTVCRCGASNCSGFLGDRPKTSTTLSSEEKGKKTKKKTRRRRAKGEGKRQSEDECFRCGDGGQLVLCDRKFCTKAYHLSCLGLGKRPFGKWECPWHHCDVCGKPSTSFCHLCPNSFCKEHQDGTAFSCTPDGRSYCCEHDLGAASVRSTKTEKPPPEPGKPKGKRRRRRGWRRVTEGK
# [23] = target: Disintegrin and metalloproteinase domain-containing protein 17 (Homo sapiens, UniProt P78536); test: exosite inhibitors of ADAM17, dose response, biochemical (AID 743260)
# Chain of Disintegrin and metalloproteinase domain-containing protein 17 (P78536 whole entry, the tested form may be a part): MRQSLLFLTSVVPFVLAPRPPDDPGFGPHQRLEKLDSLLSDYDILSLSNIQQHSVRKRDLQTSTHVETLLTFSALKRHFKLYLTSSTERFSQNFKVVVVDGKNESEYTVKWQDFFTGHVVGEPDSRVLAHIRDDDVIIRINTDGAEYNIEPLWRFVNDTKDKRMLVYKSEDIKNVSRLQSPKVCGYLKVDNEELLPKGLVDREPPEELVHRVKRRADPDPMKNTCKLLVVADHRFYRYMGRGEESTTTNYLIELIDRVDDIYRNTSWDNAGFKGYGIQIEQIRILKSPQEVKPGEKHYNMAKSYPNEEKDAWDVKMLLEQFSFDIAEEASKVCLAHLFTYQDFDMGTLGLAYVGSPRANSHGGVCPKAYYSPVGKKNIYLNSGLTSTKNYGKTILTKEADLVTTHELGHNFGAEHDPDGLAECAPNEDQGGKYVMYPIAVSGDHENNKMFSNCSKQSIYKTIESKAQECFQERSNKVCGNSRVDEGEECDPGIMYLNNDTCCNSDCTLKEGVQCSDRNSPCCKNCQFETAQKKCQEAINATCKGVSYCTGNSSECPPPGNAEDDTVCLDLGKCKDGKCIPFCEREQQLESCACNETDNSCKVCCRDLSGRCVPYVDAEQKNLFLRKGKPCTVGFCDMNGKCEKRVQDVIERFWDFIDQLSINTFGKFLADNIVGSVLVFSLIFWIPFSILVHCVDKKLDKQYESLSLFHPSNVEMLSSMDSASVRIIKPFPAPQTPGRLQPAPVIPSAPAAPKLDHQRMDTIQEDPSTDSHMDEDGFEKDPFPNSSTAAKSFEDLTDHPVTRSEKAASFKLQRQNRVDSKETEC
# [24] = ADAM10 protease inhibitors, dose response, selectivity assay for ADAM17 exosite inhibitor project, biochemical, FRET peptide substrate, recombinant human ADAM10 (AID 743259);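 further: ADAM10 enzyme cleaving a FRET peptide substrate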
# [25] = T. cruzi growth inhibition in host cells, dose response, cell-based, plate reader, dry powder, set 2 (AID 652275); assay type: functional
# [26] = Late stage assay provider results from the probe development effort to identify inhibitors of the Plasmodium falciparum M17 Leucine Aminopeptidase (M17LAP): radiolabel-based cell-based dose response assay to identify compounds that inhibit P. falciparum growth in RBCs Set 2.; assay type: functional
# [27] = target: Protein disulfide-isomerase (Homo sapiens, UniProt P07237); test: PDI inhibitors, insulin turbidity readout, confirmation, biochemical, dry powder samples, set 2 (AID 652146)
# Chain of Protein disulfide-isomerase (P07237 whole entry): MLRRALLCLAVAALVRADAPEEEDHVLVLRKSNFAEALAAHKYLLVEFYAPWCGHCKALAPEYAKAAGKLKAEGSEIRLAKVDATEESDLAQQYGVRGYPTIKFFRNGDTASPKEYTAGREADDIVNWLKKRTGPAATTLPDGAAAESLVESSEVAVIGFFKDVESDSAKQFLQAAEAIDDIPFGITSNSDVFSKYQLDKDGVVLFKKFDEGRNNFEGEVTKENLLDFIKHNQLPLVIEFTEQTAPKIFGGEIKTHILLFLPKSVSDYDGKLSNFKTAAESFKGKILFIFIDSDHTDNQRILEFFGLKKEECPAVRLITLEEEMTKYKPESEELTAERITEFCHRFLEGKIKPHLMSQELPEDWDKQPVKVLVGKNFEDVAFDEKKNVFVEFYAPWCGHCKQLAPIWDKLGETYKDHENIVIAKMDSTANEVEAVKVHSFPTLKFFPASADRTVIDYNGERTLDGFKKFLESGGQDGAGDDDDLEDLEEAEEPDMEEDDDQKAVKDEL
# [28] = target: Metabotropic glutamate receptor 3 (Rattus norvegicus, UniProt P31422); test: mGlu3 NAM potency via calcium readout, dose response, mGlu3 NAM project, TREx293 cells, Galpha15, calcium flux (AID 651840); assay type: functional
# Beta-galactosidase = Beta-galactosidase (Escherichia coli, UniProt Q8VNN2); test: Dose response counterscreen for EBI2 assay utilizing the enzyme, b-galactosidase.; assay type: functional
# Chain of Beta-galactosidase (Q8VNN2 whole entry): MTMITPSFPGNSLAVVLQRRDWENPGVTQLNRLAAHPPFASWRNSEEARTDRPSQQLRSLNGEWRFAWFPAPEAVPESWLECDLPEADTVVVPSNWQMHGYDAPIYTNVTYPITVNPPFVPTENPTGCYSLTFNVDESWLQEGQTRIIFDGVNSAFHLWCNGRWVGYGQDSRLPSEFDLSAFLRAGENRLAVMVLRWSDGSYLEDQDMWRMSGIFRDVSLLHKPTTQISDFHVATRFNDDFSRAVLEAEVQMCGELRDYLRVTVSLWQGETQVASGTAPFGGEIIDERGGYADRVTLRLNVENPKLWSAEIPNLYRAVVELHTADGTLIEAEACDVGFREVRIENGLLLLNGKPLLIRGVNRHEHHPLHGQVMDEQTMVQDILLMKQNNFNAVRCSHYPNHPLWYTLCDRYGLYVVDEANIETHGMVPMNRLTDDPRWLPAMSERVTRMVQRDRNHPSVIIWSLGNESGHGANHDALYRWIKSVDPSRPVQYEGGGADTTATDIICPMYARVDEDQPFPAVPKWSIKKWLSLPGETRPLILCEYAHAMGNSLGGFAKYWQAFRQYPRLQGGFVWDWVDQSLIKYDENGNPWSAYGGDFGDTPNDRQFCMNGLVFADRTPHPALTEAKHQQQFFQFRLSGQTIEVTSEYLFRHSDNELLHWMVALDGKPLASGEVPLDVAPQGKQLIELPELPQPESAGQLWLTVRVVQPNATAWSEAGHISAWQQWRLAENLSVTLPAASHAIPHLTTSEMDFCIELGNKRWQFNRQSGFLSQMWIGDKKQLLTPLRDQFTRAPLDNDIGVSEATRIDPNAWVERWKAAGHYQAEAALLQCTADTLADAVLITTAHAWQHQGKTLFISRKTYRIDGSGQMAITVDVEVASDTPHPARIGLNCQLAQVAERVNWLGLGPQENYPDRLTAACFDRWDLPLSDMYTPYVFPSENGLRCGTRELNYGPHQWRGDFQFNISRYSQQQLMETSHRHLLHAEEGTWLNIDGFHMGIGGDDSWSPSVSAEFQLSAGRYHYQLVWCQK
# [29] = target: T2, Corticotropin-releasing factor receptor 2/Corticotropin-releasing factor-binding protein (Homo sapiens, UniProt P24387+Q13324); test: activators of CRF receptor 2 with binding protein – uHTS hits, confirmation (AID 602473); assay type: functional; settings: read-out: EC50_Mean
# T2 sequence (Q13324 whole entry): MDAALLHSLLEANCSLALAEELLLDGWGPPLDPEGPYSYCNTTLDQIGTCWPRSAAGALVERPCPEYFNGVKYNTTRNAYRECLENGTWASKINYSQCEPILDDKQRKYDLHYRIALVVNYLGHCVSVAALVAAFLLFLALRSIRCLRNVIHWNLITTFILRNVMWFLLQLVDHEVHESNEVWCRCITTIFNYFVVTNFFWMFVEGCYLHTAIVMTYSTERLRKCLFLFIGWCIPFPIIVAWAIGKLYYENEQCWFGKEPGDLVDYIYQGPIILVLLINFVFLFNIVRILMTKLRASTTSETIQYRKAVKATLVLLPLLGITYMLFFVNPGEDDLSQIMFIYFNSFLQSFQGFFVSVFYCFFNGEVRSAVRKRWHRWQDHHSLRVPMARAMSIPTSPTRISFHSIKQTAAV
# T2 sequence (P24387 whole entry): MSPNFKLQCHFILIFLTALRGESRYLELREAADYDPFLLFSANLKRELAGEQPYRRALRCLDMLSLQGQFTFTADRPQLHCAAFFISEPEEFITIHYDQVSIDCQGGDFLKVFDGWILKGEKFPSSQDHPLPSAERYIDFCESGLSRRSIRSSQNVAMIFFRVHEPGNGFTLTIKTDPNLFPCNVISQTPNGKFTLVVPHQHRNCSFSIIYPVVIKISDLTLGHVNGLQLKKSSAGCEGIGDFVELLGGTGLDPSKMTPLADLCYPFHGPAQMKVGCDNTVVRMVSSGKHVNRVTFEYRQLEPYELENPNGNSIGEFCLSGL
# [30] = target: T3, Heat shock factor protein 1 (Mus musculus, UniProt P38532); test: HSF1 potentiators in luciferase reporter cells, confirmation, cell-based, NIH3T3, luminescence, dose retest (AID 435004); assay type: functional;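 further: stress induced by proteasome inhibitor MG132 added 30 min after compound; luciferase reporter driven by HSF1 response element in NIH3T3 cells; actives raise luminescence as potentiators of the MG132 stress response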
# T3 sequence (P38532 whole entry): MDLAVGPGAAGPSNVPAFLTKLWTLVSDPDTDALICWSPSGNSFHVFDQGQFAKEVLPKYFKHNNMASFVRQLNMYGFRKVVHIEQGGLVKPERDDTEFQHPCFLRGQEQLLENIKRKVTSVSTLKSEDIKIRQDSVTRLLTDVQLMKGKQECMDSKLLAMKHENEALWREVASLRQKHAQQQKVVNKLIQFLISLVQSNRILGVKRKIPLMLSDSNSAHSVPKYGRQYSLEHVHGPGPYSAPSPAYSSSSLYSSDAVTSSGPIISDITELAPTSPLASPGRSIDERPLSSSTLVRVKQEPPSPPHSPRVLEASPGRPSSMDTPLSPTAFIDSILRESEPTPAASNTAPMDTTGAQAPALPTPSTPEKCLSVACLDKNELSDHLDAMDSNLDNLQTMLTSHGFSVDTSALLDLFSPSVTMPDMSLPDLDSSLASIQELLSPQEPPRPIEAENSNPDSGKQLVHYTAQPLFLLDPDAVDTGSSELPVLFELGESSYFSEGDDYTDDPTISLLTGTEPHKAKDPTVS
structure (smiles),measurement,setting,value
C[C@H]1CCC/C=C/[C@@H]2C[C@H](O)C[C@H]2[C@H](O)/C=C/C(=O)O1 [BREFELDIN A],IC50,cells [1],> 67.6 µM (inactive)
same,IC50,Major prion protein,3.5 µM (active)
same,AC50,[2],3.15 µM (active) and 2.2 µM (active)
same,IC50,cells [3],> 138 µM (inactive)
same,AC50,[4],10.3 µM (active)
same,IC50,[5],> 80 µM (inactive)
same,AC50,"INS1; Rattus norvegicus, INS1",1.03 µM (active)
same,AC50,INS1; ins1,1.06 µM (active)
same,IC50,[6],0.134 µM (active)
same,AC50,Paired box protein Pax-8,< 0.26 µM (active)
same,AC50,[7],< 0.16 µM (active)
Cc1ccc2nc(NC(=O)C3CCN(S(=O)(=O)c4cccs4)CC3)sc2c1,AC50,[8],13.9 µM (active)
same,AC50,[9],> 70 µM (inactive)
same,AC50,[10],3.05 µM (active)
same,AC50,[11],46.5 µM (active)
same,AC50,[12],69.6 µM (active)
N#Cc1c(-c2ccco2)cc(C2CC2)nc1N,IC50,[13],1.43 µM (active)
O=C(NNc1nc2cc3c(cc2s1)OCO3)c1ccc(F)cc1,IC50,[14],> 122 µM (inactive)
COc1ccc(-c2cn(CC[C@@H]3CC[C@H](NC(=O)Nc4ccc(F)cc4)[C@H](CO)O3)nn2)cc1,AC50,A549,21.3 µM (active)
same,AC50,Vero,24.2 µM (active)
same,AC50,BHK-21,38.8 µM (active)
CN(C[C@H]1N[C@@H](CO)[C@H]1c1ccc(-c2cccc(F)c2)cc1)S(C)(=O)=O,AC50,HeLa,20.3 µM (active)
same,AC50,HepG2,23.7 µM (active)
O=C(NCCc1ccc(Cl)cc1)c1ccc2c(c1)OCCO2,AC50,[15],21.2 µM (active)
same,AC50,[16],20.1 µM (active)
same,AC50,[17],> 52 µM (inactive)
C[C@H](CO)N1C[C@H](C)[C@@H](CN(C)C(=O)c2ccc3c(c2)OCO3)Oc2cc(C#Cc3ccccc3F)ccc2S1(=O)=O,AC50,[18],17.7 µM (active)
same,AC50,[19],62.6 µM (active)
same,AC50,[20],9.58 µM (active)
same,AC50,Paired box protein Pax-8,6.89 µM (active)
CCOC(=O)C1CCN(c2nc(N)c3c(N)nc(SCC(=O)O)cc3c2C#N)CC1,EC50,Protein RecA,> 380 µM (inactive)
same,IC50,[21],4.87 µM (active)
same,AC50,[22],6.04 µM (active)
O=C(NCC(c1ccc(F)cc1)N1CCOCC1)c1ccc(Br)o1 (configuration not stated),IC50,[23],> 69.5 µM (inactive)
same,IC50,[24],> 69.5 µM (inactive)
CC(C)N1CC2(CN(CC3CCCCC3)C2)Oc2c(NC(=O)c3ccncc3)cccc2C1=O,AC50,[25],1.18 µM (active)
CCCCOc1ccc(C(C)C(=O)NO)cc1 (configuration not stated),IC50,[26],12.9 µM (inactive)
CCOC(=O)C1(Cc2ccccc2)CCN(Cc2ccc(O)c(Cl)c2)CC1,AC50,[27],> 30 µM (inactive)
CCCCC1(O)CCCN(C(=O)c2ccc(C#Cc3ccc(OC)cc3)cc2)C1 (configuration not stated),IC50,[28],2.92 µM
CC1(C)CC(=O)C(=CNc2cc(C(=O)c3ccccc3)ccc2/N=C/C2=C(O)CC(C)(C)CC2=O)C(=O)C1,IC50,Beta-galactosidase,7.97 µM (active)
same,EC50,[29],> 53 µM (inactive)
same,EC50,[30],56.1 µM (active)

# Source: ChEMBL document CHEMBL1201862, “PubChem BioAssay data set” (2004)
